Literature values, collected in patent publication US9950967B2, “Titanium-containing formulation and method of preparation of titanium-containing formulation” (INTERMAG Sp. z.o.o., priority 2013, dated 2018).

System: plants
Conditions: I. Pais, J. Plant Nutr. 6:3-133, 1983

## titanium
  increases the yield: 10-20%
